Data from US20250011719A1, “NEW METHOD FOR IMPROVING QUALITY OF PLATELETS” (SHANGHAI SYNVIDA BIOTECHNOLOGY CO. LTD., priority 2021, published 2025).

What was measured:
[1] = test system: human apheresis platelets; test: Platelet apoptosis (Annexin V flow cytometry) of stored apheresis platelets; assay type: cell-based; settings: for apoptosis ratio of platelets: N-acetylcysteine 5 mM, Mesna 50 uM, glutathione 200 uM, 7th day of storage, vs control group; for apoptosis ratio: Dorsomorphin 2HCl 1 uM, 4 uM, AICAR 0.1 uM, 0.5 uM, 4th day of storage, vs control
Protocol: (§1) An appropriate amount of apheresis platelets was added to a 50 ml centrifuge tube (the volume should not exceed 15 ml/tube). The mouth of the 50 ml centrifuge tube was covered and fixed with a clinical platelet storage bag as a gas-permeable membrane, placed on a horizontal shaker. The speed of the shaker was determined according to the volume inside the tube, ensuring the platelets were fully shaken and fully exposed to oxygen for respiration without touching the gas-permeable membrane.
Platelets were sampled according to conventional methods, then the concentration of platelets was diluted to 10^8/ml with Tyrodes's Buffer. 25 μl of platelets in the experimental group and control group were added to new EP tubes. Each tube was added with 5 μl of 10×Binding Buffer, 2 μl of FITC labeled Annexin V and 18 μl of Tyrodes's Buffer to a total of 50 μl in the reaction system. After incubating at room temperature in the dark for 15 minutes, 200 μl 1×Binding Buffer was added for detection on the machine, with a tube of unlabeled platelets as a negative control. The platelets labeled with Annexin V were detected within one hour after labeling and the FITC-positive cell population was the platelets in the process of apoptosis.

[2] = test system: human apheresis platelets; test: Platelet aggregation / responsiveness to agonists of stored apheresis platelets; assay type: cell-based
Protocol: as §1
By conventional methods, using a platelet aggregation instrument, 300 μl of 3×10^8 platelets/ml and the required […] were added to the aggregation tube and incubated at 37° C. for 3 minutes after gentle stirring. A baseline was established and the changes of an aggregation curve were observed within 5 minutes.

[3] = test system: human apheresis platelets; test: Mitochondrial reactive oxygen species (Mitosox) of stored apheresis platelets; assay type: cell-based; settings: for accumulation of intracellular reactive oxygen species: N-acetylcysteine 5 mM, Mesna 50 uM, glutathione 200 uM, 7th day of storage, vs control group; for mitochondrial reactive oxygen species levels: Dorsomorphin 2HCl 1 uM, 4 uM, AICAR 0.1 uM, 0.5 uM, 4th day of storage, vs control
Protocol: as §1
Using the conventional method, 25 μl platelets were diluted in equal proportions, added with 0.1 μl Mitosox reagent (5 mM) and incubated in the dark at 37° C. for 30 minutes, with 200 μl buffer added to detect the fluorescence intensity; stained the adherent cells: after centrifugation at 600 g for 5 minutes to remove the supernatant, the cells were resuspended in 200 μl Mitosox working solution, incubated at 37° C. in the dark for 30 minutes, centrifuged at 600 g for 5 minutes, washed twice with PBS and added with 200 μl PBS for resuspending and detecting the cells.

[4] = test system: human apheresis platelets; test: Mitochondrial potential difference (JC1/TMRM flow cytometry) of stored apheresis platelets; assay type: cell-based
Protocol: as §1
9.1 Changes in platelet mitochondrial potential difference were detected by JC1 fluorescent dyes: A JC1 working solution was prepared according to conventional methods. Positive control platelets were treated with CCCP to reduce mitochondrial membrane potential, that is, the positive control. Sampled platelets were diluted to 10^8/ml. 25 μl of platelets was taken and added with 25 μl of JC1 working solution. After mixed and incubated at 37° C. in the dark for 30 minutes, a 200 μl of 1×JC1 staining buffer was added for detecting the fluorescence intensity on the machine. The relative ratio of red and green fluorescence was used to represent the ratio of mitochondrial depolarization.
The platelet sampling and dilution were as described above. 50 μl Tyrodes's Buffer and 0.1 μl TMRM stock solution were added to a 50 μl dilution solution, incubated at 37° C. in the dark for 30 minutes, with 500 μl Tyrodes's Buffer added for detection on the machine. The fluorescence intensity of TMRM will red shift according to the change of mitochondrial potential difference. The fluorescence intensity was used to represent the level of mitochondrial potential difference.

[5] = test system: mouse platelets; test: Mouse ITP model (anti-CD42b antibody R300); assay type: in vivo, mice; settings: intravenous, combination 1 μmol NMN, 10 μmol NAC, 8 nmol AMPKi, vs control group
Protocol: WT mice were intravenously injected with NMN, NAC, AMPK inhibitor, or NMN+NAC+AMPK inhibitor. After 30 minutes, basal platelet counts were first determined from complete blood counts using a HEMAVET automated hematology analyzer. Mouse platelets were cleared by intravenous injection of 2 μg anti-CD42b monoclonal antibody R300 (purchased from Emfret). Orbital blood was collected at different time points to monitor platelet clearance and recovery.
To evaluate the effects of NMN, NAC or AMPK inhibitor on platelet survival in ITP patients, an ITP mouse model was established by intravenous injection of a low dose of anti-CD42b antibody R300.

[6] = test system: human apheresis platelets; test: Storage quality of human apheresis platelets at room temperature; assay type: cell-based; settings: summary statement of the results of the examples; substance used individually
Protocol: as §1
This method can simulate the storage of clinical apheresis platelets in a laboratory environment and can be used for sampling and the sampling is completed. The collected apheresis platelet samples can be used for platelet counting, flow cytometry index detection, protein collection, platelet viability detection, ATP content detection and other purposes.

[7] = test system: stored mouse platelets; test: Transfusion of stored mouse PRP into WT mice; assay type: in vivo; settings: mouse PRP stored in vitro 1 day with NMN 0.5 mM, NAC 5 mM, AMPKi 4 uM alone or combined; biotin-labeled, infused into WT mice; PBS control
Protocol: (§2) Blood was taken from the abdominal aorta of mice. Apyrase (in a final concentration of 1 U/ml) and PGE1 (in a final concentration of 0.1 μg/ml) that can inhibit platelet aggregation was then added with to the whole blood, mixed quickly and centrifuged (1050 rpm, room temperature, 10 minutes). After two centrifuges, the upper plasma of the experimental group was sucked out, discarded and the platelet precipitate at the bottom was retained. The plasma of wild-type mice was evenly distributed to the platelet pellets of mice in the experimental group and wild-type group. The platelets were uniformly dispersed and suspended, and then preserved according to the method of human platelets.
In platelet transfusions, it is undesirable for stored platelets to be rapidly cleared from circulation. To evaluate the effects of the above compounds on the quality of platelets stored in vivo, two mouse transfusion models were used. In the first model, stored human platelets were transfused into immunodeficient NCG (NOD-Prkdcem26Cd52Il2rgem 26Cd22/NjuCrl) mice. NMN+NAC+AMPKi (NMN 0.5 mM, NAC 5 mM, AMPKi 4 uM) or PBS as a control was added. Human platelet concentrates were stored for 6 days in vitro. They were then labeled with biotin and infused into NCG mice. […] However, platelet clearance was lower in the NMN+NAC+AMPKi group compared to the control group (FIG. 8B). In another group of models, mouse PRP was stored in vitro for 1 day, added with NMN, NAC, AMPK inhibitor or NMN+NAC+AMPK inhibitor (NMN 0.5 mM, NAC 5 mM, AMPKi 4 uM) or PBS as a control. They were then labeled with biotin and infused into WT mice.

[8] = test system: rat platelets; test: Storage of rat platelet-rich plasma with added palmitoyl carnitine; assay type: cell-based, rats; settings: palmitoyl carnitine 2 μM and 10 μM; days 1 and 2 of storage
Protocol: Whole blood was obtained from wild-type rats and wild-type mice via abdominal aortic puncture, and platelet-rich plasmas (PRP) were prepared separately for rats and mice. Platelet storage experiments were conducted, with two additional experimental groups each receiving the addition of palmitoyl carnitine at different concentrations (2 μM and 10 μM). Platelet apoptosis ratio, mitochondrial ROS level and changes in mitochondrial membrane potential were measured during storage days 0-4.

[9] = test system: 293T cells stably transfected with CPT2, CPT2K79Q or CPT2K79R; test: Electron microscopy of mitochondria in CPT2 and CPT2 mutant stable transfected cell lines treated with palmitoylcarnitine; assay type: cell-based; settings: 4 hours
Description: A plasmid of pLVX-IRES-ZsGreen1 inserted with CPT2K79R, a plasmid of pLVX-IRES-ZsGreen1 inserted with CPT2K79Q, and a plasmid of pLVX-IRES-ZsGreen1 inserted with CPT2 were synthesized by Shanghai Sunny Biotechnology Co., Ltd. Lentiviral transfection, 293T cell infection, and stably transfected cell lines were all carried out by conventional methods.
To further verify the correlation between CPT2K79 acetylation and the accumulation of acylcarnitine, three plasmids were constructed: wild-type CPT2, CPT2K79R mutation, and CPT2K79Q mutation. These three plasmids were packaged into lentiviruses using a three-plasmid system for infecting 293T cells. The exogenous genes were integrated into the host genome, and […] stable transfected cell lines were selected through flow cytometry sorting. CPT2K79R is a CPT2 molecule with the mutation of lysine at position 79 to arginine, abolishing acetylation at position 79. CPT2K79Q is a CPT2 molecule with the mutation of lysine at position 79 to glutamine, simulating acetylation at position 79.
After treating CPT2 and CPT2 mutant stable transfected cell lines with acylcarnitine for 4 hours, the cells were fixed. Then electron microscopy was used to observe the status and structure of mitochondria in different cell lines treated with or without palmitoylcarnitine. […] In one embodiment, there were anomalies in the morphology and arrangement of mitochondrial cristae, and the cristae became disarrayed, fragmented and blurred, with bright areas appearing in the center of the mitochondria, indicating severe damage to the mitochondrial inner membrane structure.

[10] = test system: mouse platelets; test: Storage of mouse platelet-rich plasma with added palmitoyl carnitine; assay type: cell-based, mice; settings: palmitoyl carnitine 2 μM and 10 μM; days 1 and 2 of storage; concentration-dependent trend
Protocol: as §2, with “platelets. Whole blood was obtained from wild-type rats and wild-type mice via abdominal aortic puncture, and platelet-rich plasmas (PRP) were prepared separately for rats and mice. Platelet storage experiments were conducted, with two additional experimental groups each receiving the addition of palmitoyl carnitine at different concentrations (2 μM and 10 μM). Platelet apoptosis ratio, mitochondrial ROS level and changes in mitochondrial membrane potential were measured during storage days 0-4.” for “platelets.”

[11] = N-acetylcysteine 5 mM, Mesna 50 uM, glutathione 200 uM, 7th day of storage
[12] = Dorsomorphin 2HCl 1 uM, 4 uM, AICAR 0.1 uM, 0.5 uM, 4th day of storage, vs control
[13] = added to freshly isolated platelets, second day of platelet storage, compared to the control group

## O=S(=O)([O-])CCS.[Na+] [Mesna, sodium 2-mercaptoethane sulfonate]
[1]
  apoptosis ratio of platelets: lower
[2]; [11]
  platelet responsiveness to stimuli: protected
[3]
  accumulation of intracellular reactive oxygen species: reduce
[4]; [11]
  mitochondrial membrane potential: protected

## N[C@@H](CCC(=O)N[C@@H](CS)C(=O)NCC(=O)O)C(=O)O [glutathione]
[1]
  apoptosis ratio of platelets: lower
[2]; [11]
  platelet responsiveness to stimuli: protected
[3]
  accumulation of intracellular reactive oxygen species: reduce
[4]; [11]
  mitochondrial membrane potential: protected

## NC(=O)c1ccc[n+]([C@@H]2O[C@H](COP(=O)([O-])O)[C@@H](O)[C@H]2O)c1 [NMN, nicotinamide mononucleotide]
[5]
  platelet survival rate: higher
  recovery rate of platelet counts: higher
[6]
  quality of platelets: significantly improved
[7]
  survival in vivo of stored platelets: better than controls

## NC(=O)c1ncn([C@@H]2O[C@H](CO)[C@@H](O)[C@H]2O)c1N [AICAR]
[1]
  apoptosis ratio: increased
[2]; [12]
  platelet responsiveness to stimuli: detrimental
[3]
  mitochondrial reactive oxygen species levels: elevation
[4]; [12]
  mitochondrial membrane potential: significant decrease

## NC(=O)c1cccnc1 [NAM, nicotinamide]
[6]
  quality of platelets: significantly improve

## CCCCCCCCCCCCCCCC(=O)OC(CC(=O)[O-])C[N+](C)(C)C (centres unmarked) [palmitoylcarnitine]
[1]; [13]
  apoptosis rates: higher
[8]
  status of rat platelets: did not cause significant changes
[9]; CPT2K79Q cell line, low concentrations of palmitoylcarnitine
  effect on the mitochondrial status: particularly pronounced
[9]; CPT2K79R cell line, low-dose palmitoylcarnitine
  effect on the mitochondrial status: little effect
[9]; three cell lines, low concentrations of palmitoylcarnitine, vs group without palmitoylcarnitine
  mitochondria (electron microscopy): significantly worse
[3]; [13]
  levels of mitochondrial reactive oxygen species: higher
[4]; [13]
  mitochondrial membrane potential: lower
[10]
  status of mouse platelets: effectively reduced

## OC(CNc1ccccc1)Cn1c2ccc(Br)cc2c2cc(Br)ccc21 (centres unmarked) [P7C3]
[6]
  quality of platelets: significantly improve

## CC(=O)N[C@@H](CS)C(=O)O [N-acetylcysteine]
[1]
  apoptosis ratio of platelets: lower
[5]
  platelet survival rate: higher
  recovery rate of platelet counts: higher
[6]
  quality of platelets: significantly improved
[2]; [11]
  platelet responsiveness to stimuli: protected
[3]
  accumulation of intracellular reactive oxygen species: reduce
[4]; [11]
  mitochondrial membrane potential: protected
[7]
  survival in vivo of stored platelets: better than controls

## NC(=O)c1ccc[n+]([C@@H]2O[C@H](CO)[C@@H](O)[C@H]2O)c1 [NR, nicotinamide riboside]
[6]
  quality of platelets: significantly improve

## Cl.Cl.c1cc(-c2cnn3cc(-c4ccc(OCCN5CCCCC5)cc4)cnc23)ccn1 [Dorsomorphin 2HCl]
[1]
  apoptosis ratio: varying degrees of improvement
[5]
  platelet survival rate: higher
  recovery rate of platelet counts: higher
[6]
  quality of platelets: significantly improved
[2]; [12]
  platelet responsiveness to stimuli: varying degrees of improvement
[3]
  mitochondrial reactive oxygen species levels: varying degrees of improvement
[4]; [12]
  mitochondrial membrane potential: varying degrees of improvement
[7]
  survival in vivo of stored platelets: better than controls

## O=C(NCc1ccncc1)Nc1ccc(S(=O)(=O)N2CC3CCC(C2)O3)cc1 [SBI-797812]
[6]
  quality of platelets: significantly improve
